Experimental findings from patent US8592456B2 (4SC Discovery GmbH, priority 2011, dated 2013) are described below.

pIC50: −log10 of the molar value.

The subject of the experiment is PBMC (T cell proliferation). Put plainly: T cell proliferation assay, PHA-stimulated human PBMC (BrdU ELISA). The experiment is classed as cell-based. As to conditions: human PBMC, 2 μg/ml PHA, 48 hours, BrdU; read-out: D: IC50 (Tcell proliferation). The method in brief:
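Healthy-donor human PBMC, Ficoll-isolated, seeded 1×10^5 cells/well in RPMI1640 with 10% dialyzed FCS, stimulated with 2 μg/ml PHA alongside test compound. Proliferation read after 48 hours by BrdU ELISA.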
For orientation: Dividing cells build labelled thymidine or BrdU into new DNA.

For the compound `O=C(c1c(-c2c(F)cccc2Cl)noc1-c1cnn(-c2ccncc2)c1C(F)(F)F)N1CCCO1` [Example B-57, (3-(2-chloro-6-fluorophenyl)-5-(1-(pyridin-4-yl)-5-(trifluoromethyl)-1H-pyrazol-4-yl)isoxazol-4-yl)(isoxazolidin-2-yl)methanone], the pIC50 was 5.00 to 6.00.

As for `CON(C)C(=O)c1c(-c2c(F)cccc2Cl)noc1-c1cnn(-c2ccncc2)c1C(F)(F)F` [Example B-59, 3-(2-chloro-6-fluorophenyl)-N-methoxy-N-methyl-5-(1-(pyridin-4-yl)-5-(trifluoromethyl)-1H-pyrazol-4-yl)isoxazole-4-carboxamide], the pIC50 is 5.00 to 6.00.

As for `CC(C)OC(=O)c1c(-c2c(F)cccc2Cl)noc1-c1cnn(-c2ccccc2Cl)c1C(F)(F)F` [Example B-60], the pIC50 is 5.00 to 6.00.

In the case of `CC(C)OC(=O)c1c(-c2c(F)cccc2Cl)noc1-c1cnn(-c2cccnc2)c1C(F)(F)F` [Example B-61, isopropyl 3-(2-chloro-6-fluorophenyl)-5-(1-(pyridin-3-yl)-5-(trifluoromethyl)-1H-pyrazol-4-yl)isoxazole-4-carboxylate], the pIC50 is 7.00 to 8.00.

As for `O=C(c1c(-c2ccccc2Cl)noc1-c1cnn(-c2cccc(Cl)c2)c1C(F)(F)F)N1CCCO1` [Example B-62, (3-(2-chlorophenyl)-5-(1-(3-chlorophenyl)-5-(trifluoromethyl)-1H-pyrazol-4-yl)isoxazol-4-yl)(isoxazolidin-2-yl)methanone], the pIC50 was 7.00 to 8.00.

On to `CNC(=O)c1c(-c2ccccc2Cl)noc1-c1cnn(-c2cccc(Cl)c2)c1C(F)(F)F` [Example B-63, 3-(2-chlorophenyl)-5-(1-(3-chlorophenyl)-5-(trifluoromethyl)-1H-pyrazol-4-yl)-N-methylisoxazole-4-carboxamide], for which the pIC50 was 6.00 to 7.00.

With `CON(C)C(=O)c1c(-c2ccccc2Cl)noc1-c1cnn(-c2cccc(Cl)c2)c1C(F)(F)F` [Example B-64, 3-(2-chlorophenyl)-5-(1-(3-chlorophenyl)-5-(trifluoromethyl)-1H-pyrazol-4-yl)-N-methoxy-N-methylisoxazole-4-carboxamide], the pIC50 is 6.00 to 7.00.

Consider `COC(=O)c1c(-c2c(F)cccc2Cl)noc1-c1cnn(-c2cccnc2)c1C(F)(F)F` [Example B-67, methyl 3-(2-chloro-6-fluorophenyl)-5-(1-(pyridin-3-yl)-5-(trifluoromethyl)-1H-pyrazol-4-yl)isoxazole-4-carboxylate], for which the pIC50 is 7.00 to 8.00.

On to `CSC(=O)c1c(-c2c(F)cccc2Cl)noc1-c1cnn(-c2cccnc2)c1C(F)(F)F` [Example B-68, S-methyl 3-(2-chloro-6-fluorophenyl)-5-(1-(pyridin-3-yl)-5-(trifluoromethyl)-1H-pyrazol-4-yl)isoxazole-4-carbothioate], for which the pIC50 was 7.00 to 8.00.

With `COC(=O)c1c(-c2c(F)cccc2Cl)noc1-c1cnn(-c2ccncc2)c1C(F)(F)F` [Example B-69, methyl 3-(2-chloro-6-fluorophenyl)-5-(1-(pyridin-4-yl)-5-(trifluoromethyl)-1H-pyrazol-4-yl)isoxazole-4-carboxylate], the pIC50 is 7.00 to 8.00.

On to `CCOC(=O)c1c(-c2c(F)cccc2Cl)noc1-c1cnn(-c2cccc(NC(C)=O)c2)c1C(F)(F)F` [Example B-70, ethyl 5-(1-(3-acetamidophenyl)-5-(trifluoromethyl)-1H-pyrazol-4-yl)-3-(2-chloro-6-fluorophenyl)isoxazole-4-carboxylate], for which the pIC50 was 7.00 to 8.00.

On to `COC(=O)c1c(-c2ccccc2Cl)noc1-c1cnn(-c2cccc(Cl)c2)c1C(F)(F)F` [Example B-71, methyl 3-(2-chlorophenyl)-5-(1-(3-chlorophenyl)-5-(trifluoromethyl)-1H-pyrazol-4-yl)isoxazole-4-carboxylate], for which the pIC50 is above 8.00.

Regarding `CCOC(=O)c1c(-c2c(F)cccc2Cl)noc1-c1cnn(-c2ccccc2Br)c1C(F)(F)F` [Example B-72, ethyl 5-(1-(2-bromophenyl)-5-(trifluoromethyl)-1H-pyrazol-4-yl)-3-(2-chloro-6-fluorophenyl)isoxazole-4-carboxylate], the pIC50 is 6.00 to 7.00.

Regarding `CC(C)OC(=O)c1c(-c2c(F)cccc2Cl)noc1-c1cnn(-c2cccc(S(N)(=O)=O)c2)c1C(F)(F)F` [Example B-73, isopropyl 3-(2-chloro-6-fluorophenyl)-5-(1-(3-sulfamoylphenyl)-5-(trifluoromethyl)-1H-pyrazol-4-yl)isoxazole-4-carboxylate], the pIC50 was 5.00 to 6.00.

In the case of `CON(C)C(=O)c1c(-c2c(F)cccc2Cl)noc1-c1cnn(-c2ccccc2Br)c1C(F)(F)F` [Example B-74, 5-(1-(2-bromophenyl)-5-(trifluoromethyl)-1H-pyrazol-4-yl)-3-(2-chloro-6-fluorophenyl)-N-methoxy-N-methylisoxazole-4-carboxamide], the pIC50 is 5.00 to 6.00.

On to `COC(=O)c1c(-c2c(Cl)cccc2Cl)noc1-c1cnn(-c2cccc(Cl)c2)c1C(F)(F)F` [Example B-75, methyl 5-(1-(3-chlorophenyl)-5-(trifluoromethyl)-1H-pyrazol-4-yl)-3-(2,6-dichlorophenyl)isoxazole-4-carboxylate], for which the pIC50 is above 8.00.

Take `COC(=O)c1c(-c2ccc(Cl)cc2Cl)noc1-c1cnn(-c2cccc(Cl)c2)c1C(F)(F)F` [Example B-76, methyl 5-(1-(3-chlorophenyl)-5-(trifluoromethyl)-1H-pyrazol-4-yl)-3-(2,4-dichlorophenyl)isoxazole-4-carboxylate]: the pIC50 is 6.00 to 7.00.

In the case of `COC(=O)c1c(-c2ccccc2F)noc1-c1cnn(-c2cccc(Cl)c2)c1C(F)(F)F` [Example B-77, methyl 5-(1-(3-chlorophenyl)-5-(trifluoromethyl)-1H-pyrazol-4-yl)-3-(2-fluorophenyl)isoxazole-4-carboxylate], the pIC50 was 7.00 to 8.00.

On to `CC(=O)Nc1cccc(-n2ncc(-c3onc(-c4c(F)cccc4Cl)c3C(=O)OC(C)C)c2C(F)(F)F)c1` [Example B-78, isopropyl 5-(1-(3-acetamidophenyl)-5-(trifluoromethyl)-1H-pyrazol-4-yl)-3-(2-chloro-6-fluorophenyl)isoxazole-4-carboxylate], for which the pIC50 was 6.00 to 7.00.

Consider `CC(C)NS(=O)(=O)c1cccc(-n2ncc(-c3onc(-c4c(F)cccc4Cl)c3C(=O)OC(C)C)c2C(F)(F)F)c1` [Example B-79, isopropyl 3-(2-chloro-6-fluorophenyl)-5-(1-(3-(N-isopropylsulfamoyl)phenyl)-5-(trifluoromethyl)-1H-pyrazol-4-yl)isoxazole-4-carboxylate], for which the pIC50 is 6.00 to 7.00.

Turning to `CCOC(=O)c1c(-c2c(F)cccc2Cl)noc1-c1cnn(Cc2ccccc2F)c1C(F)(F)F` [Example B-80, ethyl 3-(2-chloro-6-fluorophenyl)-5-(1-(2-fluorobenzyl)-5-(trifluoromethyl)-1H-pyrazol-4-yl)isoxazole-4-carboxylate], the pIC50 was 5.00 to 6.00.

Turning to `CCOC(=O)c1c(-c2c(F)cccc2Cl)noc1-c1cnn(CC2CCOCC2)c1C(F)(F)F` [Example B-81, ethyl 3-(2-chloro-6-fluorophenyl)-5-(1-((tetrahydro-2H-pyran-4-yl)methyl)-5-(trifluoromethyl)-1H-pyrazol-4-yl)isoxazole-4-carboxylate], the pIC50 was 6.00 to 7.00.
